{"source": "patent US20070093539A1", "about": "“N-hydroxy-4-(3-pheyl-5-methyl-isoxazole-4-yl)-benzenesulfonate solvates” (priority 2003, published 2007)", "key": {"Human recombinant COX-2": {"molecular_target": "T1, Human recombinant COX-2 (Homo sapiens, UniProt P35354)", "T1 construct": "purchased Cayman Chemical, Ann Arbor, USA 60122", "T1 sequence (P35354 18-604)": "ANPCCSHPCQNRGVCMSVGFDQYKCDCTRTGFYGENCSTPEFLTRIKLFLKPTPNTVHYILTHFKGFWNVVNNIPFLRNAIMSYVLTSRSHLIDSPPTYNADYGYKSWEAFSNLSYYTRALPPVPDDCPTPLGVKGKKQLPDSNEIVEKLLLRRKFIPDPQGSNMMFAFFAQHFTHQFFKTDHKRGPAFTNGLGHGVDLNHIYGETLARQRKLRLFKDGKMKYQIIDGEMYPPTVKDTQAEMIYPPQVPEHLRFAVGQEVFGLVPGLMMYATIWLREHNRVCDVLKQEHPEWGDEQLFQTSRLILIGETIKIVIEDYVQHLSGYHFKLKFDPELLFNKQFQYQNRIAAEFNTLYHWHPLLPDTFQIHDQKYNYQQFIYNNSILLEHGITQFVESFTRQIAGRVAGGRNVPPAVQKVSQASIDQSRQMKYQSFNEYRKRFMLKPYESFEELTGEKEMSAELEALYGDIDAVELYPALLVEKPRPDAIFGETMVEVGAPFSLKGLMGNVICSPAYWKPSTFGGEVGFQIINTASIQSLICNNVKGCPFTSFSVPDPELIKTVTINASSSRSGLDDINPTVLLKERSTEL", "assay": "spectrophotometric TMPD assay, COX-2", "format": "biochemical", "details": "15 min preincubation at 25° C., read-out: Human recombinant COX-2 IC50 (μM) ± S.E.M.", "description": "The Human recombinant COX-2 and sheep COX-1 activity were determined by spectrophotometric TMPD assay (K. Gierse, S. D. Hauser, D. P. Creely, C. M. Koboldt, S. H. Rangwala, P. C. Isakson and K. Seibert: Expression and selective inhibition of the constitutive and inducible forms of human cyclo-oxygenase Biochem. J. 305: 479-484 (1995)).\nThe Human recombinant COX-2 and sheep COX-1 activity were measured by spectrophotometric assay based on oxidation of N,N,N′,N′,-tetramethyl-p-phenylenediamine (TMPD). During the reduction of the prostaglandine G2 (PGG2) to prostaglandine endoperoxid H2 (PGH2), the TMPD is being oxidated to a colour product, which can be measured by spectrophotometer at 610 nm.\n4 μl of solution of inhibitors in different concentrations was added to the 156 μl of reaction mixture (100 mM sodium phosphate buffer, pH:6.5, 1 μM hematin, 1 mg/ml gelatine). Afterwards 20 μl solution of 50 unit human recombinant COX-2 enzym or 20 μl of 50 unit sheep COX-1 enzym (Cayman Chemical, Ann Arbor, USA, cat no.: 60122/COX-2/, cat. no.: 60100/COX-1/) was added. The incubation mixture: was preincubated for 15 minutes at 25° C. in a spectrophotometric 96-well plate reader (Labsystem iEMS Reader MF). Following this, the mixture of 20 μl 1 mM arachidonic acid and 1 mM TMPD solution were added. It was shaken for 10 second and the absorbance was measured at 610 nm."}, "[1]": {"system": "carrageenan induced inflammatory hyperalgesia", "assay": "Carrageenan induced inflammatory hyperalgesia (Randall-Selitto), chronic model", "format": "in vivo, male SPRD rats", "details": "30 mg/kg p.o.", "description": "Edema was induced by injection of Carrageenan (CA) into plantar surface of right hind paw. Male SPRD rats (weighing 140-190 g) were used n=6-8/group). Then the mechanical pain threshold of the inflamed hind paw was determined with an analgesimeter ((Ugo Basile, type: 37215).\nThis assay monitors the decrease of the pain threshold, and the time depending changing of the pain by mechanical pain stimulus. Analgesics can increase the pain threshold of the inflamed hinds and this effect is in terms of percentage of reversal.\nUntreated right hind paw was compressed with a progressively increasing pressure. The pressure was recorded (in grams) when the animal first vocalized or made a vigorous attempt to remove the paw. It was determined to baseline threshold of the untreated paw. (average: 80-110 g). After it the animals were treated with carrageenan. After the treatment the edema and the threshold were checked in a given times. […] (Average of inflammation induced pain threshold was 20-25 g, this means 65-80% decrease related to the baseline.)\nThe chronic phase of the inflammantion and the decreasing of the threshold were induced by higher dose of CA. Inflammation induced threshold decreasing was measured 24 hours after the CA injection (150 μl of 2% solution). ) After it the animals were treated with test compounds and valdecoxib (30-30 mg/kg p.o.). Change in the threshold was checked at 1 h, 2 h, and 3 h following drug administration. In both model used control groups were treated orally only with solvents at the time of treatments. In both protocol the effects of the test compounds were calculated in percentage reversal of mechanical hiperalgesia: [formula] • T3h: In acute model, the threshold in the control group at 3 h after the CA injection (in gram) • T24h: In chronic model, the threshold in the control group at 24 h after the CA injection (in gram) • T0h: The threshold before the CA injection (in gram) • TXh In acute model, at 3h after the CA injection • TXh=In chronic model, at 25 h, 26 h, 27 h after the CA injection"}, "isolated rabbit heart": {"system": "isolated rabbit heart", "assay": "Cardiac effects on the isolated rabbit heart (Langendorff, coronary flow)", "design": "species or system New Zealand white rabbits; coronary flow: unit not given here", "details": "for coronary flow % changing: versus basic value", "description": "New Zealand white rabbits weighing 1.5-2 kg were used. The animals were exsanguinated and after thoracotomy the hearts were excised and mounted on a Langendorff-type perfusion apparatus. The hearts were perfused via the aorta with oxigenated, thermostated (37° C.) Krebs solution. A constant perfusion pressure of 80 cmH2O was applied. The test compounds were dissolved in the perfusion solution to obtain the requested concentrations.\nThe basic value of coronary flow was determined. Afterwards the small amount of compounds were added to perfusion liquid and the perfusion was measured for 30 minutes at every 10 minutes. Afterwards 30 minutes perfusion was performed without compound and the measure was repeated with the medium and high amount of compounds.\nThe effects of same concentration of valdecoxib and compound of example 1 were investigated in 4-4 hearts (1, 3 and 10 μM). Valdecoxib had no effect in either concentration. It can clearly be shown that the coronary flow was increased dose dependently. This effect is advantageous in practice of clinical therapy, because the painful arthritic and degenerative joint and bone deformations are emerged rather in old age, when diseases of the vascular system are also frequently encountered, which can conduce to disorder of vascular bed of the heart."}}, "data": [{"substance": "N-hydroxi-4-(3-phenyl-5-methyl-isoxazole-4-yl)-benzenesulfonamide monohydrate [example 1]", "values": [{"measurement": "IC50", "setting": "Human recombinant COX-2", "value": "1.1 ± 0.3", "unit": "µM"}, {"measurement": "Analgesic effect in % after p.o. treatment", "setting": "[1]; 1 hour", "value": 57.8, "unit": "%"}, {"measurement": "Analgesic effect in % after p.o. treatment", "setting": "[1]; 2 hours", "value": 63.9, "unit": "%"}, {"measurement": "Analgesic effect in % after p.o. treatment", "setting": "[1]; 3 hours", "value": 42.0, "unit": "%"}, {"measurement": "coronary flow", "setting": "isolated rabbit heart; 1 μM, 10 minutes of treatment", "value": "40.0 ± 3.3"}, {"measurement": "coronary flow % changing", "setting": "isolated rabbit heart; 1 μM, 10 minutes", "value": 16.6, "unit": "%"}, {"measurement": "coronary flow", "setting": "isolated rabbit heart; 1 μM, 20 minutes of treatment", "value": "39.0 ± 3.0"}, {"measurement": "coronary flow % changing", "setting": "isolated rabbit heart; 1 μM, 20 minutes", "value": 13.7, "unit": "%"}, {"measurement": "coronary flow", "setting": "isolated rabbit heart; 1 μM, 30 minutes of treatment", "value": "37.5 ± 2.4"}, {"measurement": "coronary flow % changing", "setting": "isolated rabbit heart; 1 μM, 30 minutes", "value": 9.3, "unit": "%"}, {"measurement": "coronary flow", "setting": "isolated rabbit heart; 3 μM, 10 minutes of treatment", "value": "37.3 ± 2.3"}, {"measurement": "coronary flow % changing", "setting": "isolated rabbit heart; 3 μM, 10 minutes", "value": 24.3, "unit": "%"}, {"measurement": "coronary flow", "setting": "isolated rabbit heart; 3 μM, 20 minutes of treatment", "value": "37.5 ± 1.7"}, {"measurement": "coronary flow % changing", "setting": "isolated rabbit heart; 3 μM, 20 minutes", "value": 25.0, "unit": "%"}, {"measurement": "coronary flow", "setting": "isolated rabbit heart; 3 μM, 30 minutes of treatment", "value": "38.8 ± 1.3"}, {"measurement": "coronary flow % changing", "setting": "isolated rabbit heart; 3 μM, 30 minutes", "value": 26.0, "unit": "%"}, {"measurement": "coronary flow", "setting": "isolated rabbit heart; 10 μM, 10 minutes of treatment", "value": "45.8 ± 2.5"}, {"measurement": "coronary flow % changing", "setting": "isolated rabbit heart; 10 μM, 10 minutes", "value": 63.6, "unit": "%"}, {"measurement": "coronary flow", "setting": "isolated rabbit heart; 10 μM, 20 minutes of treatment", "value": "48.3 ± 4.8"}, {"measurement": "coronary flow % changing", "setting": "isolated rabbit heart; 10 μM, 20 minutes", "value": 72.5, "unit": "%"}, {"measurement": "coronary flow", "setting": "isolated rabbit heart; 10 μM, 30 minutes of treatment", "value": "49.0 ± 4.8"}, {"measurement": "coronary flow % changing", "setting": "isolated rabbit heart; 10 μM, 30 minutes", "value": 75.0, "unit": "%"}, {"measurement": "effect on coronary flow (in words)", "setting": "isolated rabbit heart; 1, 3 and 10 μM, 4-4 hearts", "value": "positive effect"}]}]}
